# Values of other authors in US10548855B2, “Memantine combinations and use” (CHASE PHARMACEUTICALS CORPORATION, priority 2016, dated 2020).
# Test system: mice
# Conditions: water maze, 2 mg/kg
smiles,measurement,value
"CC12CC3CC(C)(C1)CC(N)(C3)C2 [memantine, 3,5-dimethyladamantan-1-amine]",effect on scopolamine-induced learning deficits,reverses scopolamine-induced learning deficits
